Assay results taken from PMC7179450, “Primary Human Hepatocytes, But not HepG2 or Balb/c 3T3 Cells, Efficiently Metabolize Salinomycin and Are Resistant to Its Cytotoxicity” (Molecules, 2020).
Values joined by “and” are separate entries in the source; they are usually repeats but may differ in a detail not shown here. Identical values can stand only once. Like-named read-outs stand apart in the source and are kept apart here.

What was measured:
Balb/c 3T3 cells = assay: TPC assay in Balb/c 3T3; format: cell-based, mouse; conditions: for EC50: Mus musculus, read-out: EC50 (effective concentration)
Procedure: The HepG2 cell line was purchased from the American Type Culture Collection (ATCC® HB-8065™). The cells were cultured in Minimum Essential Medium Eagle (MEME) (Sigma–Aldrich Co. (St. Louis, MO, USA)). Normal murine embryonic fibroblasts, Balb/c 3T3 clone A31 cell line (gift from Department of Swine Diseases of the National Veterinary Research Institute in Pulawy) was cultured in Dulbecco’s Modified Eagle’s Medium (DMEM) (Invitrogen Corporations (Paisley, UK)). The media were supplemented with 10% BCS (Balb/c 3T3), 10% FBS (HepG2), 1% L-glutamine, and 1% antibiotic solution. The cells were maintained in 75 cm^2 cell culture flasks in humidified incubator at 37 °C, in an atmosphere of 5% CO2. The medium was refreshed every two or three days and the cells were trypsinized by 0.25% trypsin–0.02% EDTA after reaching 70–80% confluence. The initial cell viability was determined with the trypan blue exclusion test. Single cell suspensions were prepared and adjusted to a density of 2 × 10^5 cell/mL (HepG2) and 1 × 10^5 cell/mL (Balb/c 3T3). The cell suspension was transferred to 96-well plates (100 µL/well) and incubated for 24 h before exposure to the studied drugs.
(§1) The concentration ranges of the drugs were chosen according to their solubility and their plasma level. Each drug was dissolved in DMSO. The final concentration of DMSO was 0.1% or 0.2% in the medium for both samples and corresponding controls. […] All drug solutions in medium were freshly prepared and protected from light. SAL was tested in seven concentrations from 0.39 to 25 µg/mL. Tiamulin was added in two concentrations (1 and 10 µg/mL) or just one concentration (1 µg/mL) to cell lines or human hepatocytes, respectively. […] The cytotoxicity was assessed after 24 and 48 h of exposure of cell lines or after 12 and 24 h exposure of PHH. […]
The assay was based on staining total cellular protein [14]. […] The absorbance was measured at 595 nm in a microplate reader using blank as a reference. Cytotoxicity was expressed as a percentage of the negative control (0.1% or 0.2% DMSO).

horses = conditions: cited from earlier work
[1] = Cytotoxicity battery in human hepatoma cells; format: cell-based; conditions: HepG2 human hepatoma cells, after 24 h, read-out: cytotoxic concentrations
Procedure: as §1, with “respectively. Prednisolone was tested in one concentration—1 µg/mL independent of the type of cells.” for “respectively.”
The metabolic activity of living cells was assessed by measuring the activity of dehydrogenases. […] The plate was shaken for 15 min at room temperature and transferred to a microplate reader to measure the absorbance at 570 nm, using a blank as a reference. Cytotoxicity was expressed as a percentage of the negative control (0.1% or 0.2% DMSO).
The assay, based on staining of living cells by neutral red (NR), was performed according to the protocol described by Borenfreund and Puerner. […] After 10 min of shaking, the absorbance of the dissolved NR was measured at 540 nm using a blank as a reference. […]

CC[C@@H](C(=O)[C@@H](C)[C@@H](O)[C@H](C)[C@@H]1O[C@@H]([C@@H](CC)C(=O)O)CC[C@@H]1C)[C@H]1O[C@]2(C=C[C@@H](O)[C@]3(CC[C@@](C)([C@H]4CC[C@](O)(CC)[C@H](C)O4)O3)O2)[C@H](C)C[C@@H]1C [SAL, salinomycin]
lowest concentration with significant effect on total protein content (Balb/c 3T3 cells; Balb/c 3T3, 24 h, SAL alone or in both drug combinations (Figure S3)): 0.39 µg/mL
EC50 (Balb/c 3T3 cells; BALB/c3T3, 24 h): 7.9 ± 1.1 µg/mL
EC50 (Balb/c 3T3 cells; BALB/c3T3, 48 h): 1.4 ± 0.5 µg/mL
LD50 (horses): 0.6 mg/kg b.w.
EC50 at 24 h [1]: 800 nM to 20.5 µM and 0.6 µg/mL to 15.4 µg/mL
